Experimental data reported in PMC7824259, “Novel Cecropin-4 Derived Peptides against Methicillin-Resistant Staphylococcus aureus” (Antibiotics, 2021).
Converted amounts (≈) assume the structure as drawn. Like-named read-outs stand apart in the source and are kept apart here. No end group written: not given here.

Key:
S. aureus MW2 [1] = experiment: Checkerboard synergy of C18 with clinical antibacterial agents; assay type: cell-based, Staphylococcus aureus; conditions: for Kind of interaction with C18: named agent combined with C18, S. aureus MW2, checkerboard; for FICI (fractional inhibition concentration index): named agent combined with C18, S. aureus MW2, 8 × 8 checkerboard, synergy FICI ≤ 0.5, additive 0.5 < FICI ≤ 4, antagonism > 4
Experimental: The checkerboard assay was used to evaluate the synergy of C18 with conventional antibacterial agents against S. aureus MW2 [40]. Briefly, an 8 × 8 matrix was formed in a 96-well microtiter petri dish with two-fold serial dilutions of C18 combined with each conventional antibacterial agent. The fractional inhibition concentration index (FICI) was calculated: FICI = MIC of compound A in combination / MIC of compound A alone +MIC of compound B in combination / MIC of compound B alone.

S. aureus MW2 [2] = experiment: microbe, parasite or virus in culture; assay type: cell-based, Staphylococcus aureus; conditions: for MIC: Staphylococcus aureus, MW2, 18 h
Experimental: Broth microdilution assays determined the MICs of peptides following the method described by the Clinical and Laboratory Standards Institute. In short, for each peptide, serial dilutions (50 µL) in duplicates were made in Mueller-Hinton broth (BD, Franklin Lakes, NJ, USA) in a 96-well plate (Cat No. 3595, Corning, NY, USA). […] After bacterial addition, the plates were incubated at 37°C for 18 h. […] To investigate each peptide’s activity in high salt concentrations or human serum, the MIC was again tested as described in the previous paragraph of the experimental method. […] All MIC assays were conducted in duplicate, with each experiment replicated twice.

S. aureus MW2 [3] = experiment: Propidium iodide membrane permeability; assay type: cell-based, Staphylococcus aureus; conditions: 32 µg/mL, 1 h incubation
Experimental: Fluorescence-based bacterial permeation assay was used to follow the membrane-oriented interactions of the designed peptides. The propidium iodide probe is generally used to establish a pore formation mechanism of AMPs. In short, S. aureus MW2 was inoculated in MHB and grown overnight at 37 °C overnight with shaking at 220 rpm. A fresh inoculation was done the next day in the same media to achieve exponential growth. The culture was then washed with PBS 3 times and adjusted to OD600 ~0.3 in PBS. We added 48 μL of this culture to a 96-well black clear-bottom plate (Cat no. 3904, Corning, NY, USA) containing 50 μL of serially diluted 2 × peptide concentrations, and 2 μL of propidium iodide (20 μM) was added per well. Fluorescence was measured by SpectraMax M2 (Molecular Devices, CA, USA) with an excitation wavelength of 584 nm and an emission wavelength of 620 nm after 1 h at room temperature.

[4] = Rhodamine-BF dye leakage from liposomes; conditions: liposomes DOPC: Cholesterol, 55:40; 1 h incubation
Source text: We also performed dye leakage experiments to further understand the membrane interactive nature of the peptides. A dye, rhodamine-BF, entrapped in liposomes (DOPC: Cholesterol, 55:40) was subjected to the action of the peptides.

human red blood cells = assay type: cell-based; conditions: for HL50 (50% of human red blood cells were lysed): 1 h
Experimental: The ability of the peptide to cause hemoglobin leakage was evaluated, as described in a previous study. Human erythrocytes were purchased from Rockland Immunochemicals (Limerick, PA, USA), washed 3 × times in equal volume PBS, and resuspended as 4% hRBCs solution. One hundred microliters of the blood cells were added to 100 µl of the peptide solution in PBS serially diluted from 4–128 µg/mL in a 96-well microtiter plate. PBS and 1% Triton-X 100 were used as […] controls. Upon adding the blood cells, the plate was incubated at 37 °C for 1 h and then centrifuged at 500× g for 5 min. One hundred microliters of the supernatant were transferred to a fresh 96-well plate, and absorbance was read at 540 nm. The hemolysis percentage was calculated considering 100% hemolysis caused by 1% Triton X-100 and 0% on PBS. The values were represented as the mean of duplicates. The following formula calculated the percentage of hemolysis: (A540 nm in the peptide solution − A540 nm in PBS)/(A540 nm of 1% Triton X-100 treated sample − A540 nm in PBS) × 100. Zero and 100% percentage hemolysis were determined in PBS and […], respectively.

G. mellonella larvae = experiment: Galleria mellonella toxicity; assay type: in vivo; conditions: uninfected larvae, doses 4, 8, 16, 32 mg/kg, even at 32 mg/kg, until 120 h, n = 16/group
Experimental: To study the protective effects of the peptide C18 in an in vivo model, we used an established wax moth model system. G. mellonella larvae (Vanderhorst Wholesale, St. Mary’s, OH, USA) were distributed as a different group with randomly selected larvae (n = 16/group). The S. aureus MW2 bacteria were grown to exponential phase from overnight culture. Cells were then washed with PBS three times and finally suspended in PBS with an OD600 = 0.3. Experimental groups consisted of untouched (no injection), PBS (vehicle), bacterial infection group, and treatment group. Vancomycin was used as a positive control. […] All injections were performed using a Hamilton syringe on the last left proleg. The larvae were incubated at 37 °C for 5 days, with live and dead counts being performed every 24 h.

HepG2 cells = experiment: Mammalian cell cytotoxicity (WST-1); assay type: cell-based, human; conditions: 64 µg/mL, HepG2, 24 h
Experimental: HepG2 cells were used to assess the mammalian cell cytotoxicity of AMPs, as described previously. Cells were grown in Dulbecco’s Modified Eagle Medium (DMEM) (Gibco, MD, USA) supplemented with 10% fetal bovine serum (FBS) (Gibco, MD, USA) and 1% penicillin/streptomycin (Gibco, MD, USA) and maintained at 37°C in 5% CO2. Cells were harvested and resuspended in a fresh medium, and 100 µL were distributed in a 96-well plate at […]. AMPs were serially diluted in serum and antibiotic-free DMEM added to the monolayer of the cells, and the plates were incubated at 37 °C in 5% CO2 for 24 h. At 4 h, before the end of the incubation period, 10 µL of 2-(4-iodophenyl)-3-(4-nitrophenyl)-5-(2, 4-disulfophenyl)-2H-tetrazolium (WST-1) solution (Roche, Mannheim, Germany) was added to each well. WST-1 reduction was monitored at 450 nm using a Vmax microplate reader. Assays were performed in triplicate, and the percentage of cell survival was calculated.

psGABO-SPE plasmid DNA = experiment: Plasmid band shift assay (DNA binding)
Experimental: The methods in the reference were used to detect the ability of C18 binding DNA [43]. Briefly, the reaction of 20 μL containing 100 ng psGABO-SPE plasmid DNA (Addgene, MA, USA), polymyxin B, and C18 (1.95–500 μM) or ddH2O (control) was incubated in TE (Tris-EDTA) buffer (Invitrogen, CA, USA) at 37 °C for 2 h. The products were detected in 1% agarose gel electrophoresis, and plasmid migration was observed on a G: BOX Chemi XT4 gel doc system.

CCCCCCCCCC(=O)N[C@@H](Cc1c[nH]c2ccccc12)C(=O)N[C@H](CC(N)=O)C(=O)N[C@@H](CC(=O)O)C(=O)N[C@@H]1C(=O)NCC(=O)N[C@@H](CCCN)C(=O)N[C@@H](CC(=O)O)C(=O)N[C@H](C)C(=O)N[C@@H](CC(=O)O)C(=O)NCC(=O)N[C@H](CO)C(=O)N[C@@H]([C@H](C)CC(=O)O)C(=O)N[C@@H](CC(=O)c2ccccc2N)C(=O)O[C@@H]1C [daptomycin]
Kind of interaction with C18 (S. aureus MW2 [1]): synergistic effect

CNC(C)C1CCC(N)C(OC2C(N)CC(N)C(OC3OCC(C)(O)C(NC)C3O)C2O)O1 (stereo not shown) [gentamicin]
FICI (fractional inhibition concentration index) (S. aureus MW2 [1]): 1.25
Kind of interaction with C18 (S. aureus MW2 [1]): additive effect

Cc1onc(-c2ccccc2)c1C(=O)N[C@@H]1C(=O)N2[C@@H]1SC(C)(C)[C@@H]2C(=O)O [oxacillin]
FICI (fractional inhibition concentration index) (S. aureus MW2 [1]): 0.75
Kind of interaction with C18 (S. aureus MW2 [1]): additive effect

CN[C@H](CC(C)C)C(=O)N[C@H]1C(=O)N[C@@H](CC(N)=O)C(=O)N[C@H]2C(=O)N[C@H]3C(=O)N[C@H](C(=O)N[C@H](C(=O)O)c4cc(O)cc(O)c4-c4cc3ccc4O)[C@H](O)c3ccc(c(Cl)c3)Oc3cc2cc(c3O[C@@H]2O[C@H](CO)[C@@H](O)[C@H](O)[C@H]2O[C@H]2C[C@](C)(N)[C@H](O)[C@H](C)O2)Oc2ccc(cc2Cl)[C@H]1O [vancomycin]
MIC against S. aureus MW2, Serum (5%) (S. aureus MW2 [2]; MHB with human serum (5%), 37 °C, 18 h, duplicate, replicated twice): not changed
MIC (S. aureus MW2 [2]; read-out: MIC against S. aureus MW2, CaCl2 (2 mM)): 2 µg/mL (≈ 1.38 µM)
MIC (S. aureus MW2 [2]; read-out: MIC against S. aureus MW2, MHB): 2 µg/mL (≈ 1.38 µM)
MIC (S. aureus MW2 [2]; read-out: MIC against S. aureus MW2, NaCl (150 mM)): 2 µg/mL (≈ 1.38 µM)
FICI (fractional inhibition concentration index) (S. aureus MW2 [1]): 0.625
Kind of interaction with C18 (S. aureus MW2 [1]): additive effect
Propidium iodide fluorescence (S. aureus MW2 [3]): unable to induce any fluorescence
Rhodamine-BF fluorescence (dye leakage) [4]: lowest

LWKIGKKIWRVLWNWR [C18]
HL50 relative to MIC against MRSA MW2 (human red blood cells): 4 times
HL50 (50% of human red blood cells were lysed) (human red blood cells): 16 µg/mL
Larvae survival (toxicity) (G. mellonella larvae): more than 70%

LWKIWKKIWRVGWNWR [C13]
HL50 (50% of human red blood cells were lysed) (human red blood cells): 48 µg/mL

LWKIWKKIWRVWKNWR [C16]
HL50 (50% of human red blood cells were lysed) (human red blood cells): 16 µg/mL

LWKIWWKIWRVWKNWR [C22]
HL50 (50% of human red blood cells were lysed) (human red blood cells): 4 µg/mL
Reduction of live-cell contents (HepG2 cells): 20%

polymyxin B
Concentration of significant DNA binding (psGABO-SPE plasmid DNA; 100 ng plasmid, TE buffer, 37 °C, 2 h, 1% agarose gel, 1.95–500 μM tested): 31.2 µM
Concentration of significant DNA binding (psGABO-SPE plasmid DNA; same concentration in brackets): 37.1 µg/mL
